Test [1] has as its target T1, Nitric oxide synthase, inducible (Homo sapiens, UniProt P35228). The experiment in a line: Inhibition of inducible nitric oxide synthase.
Test [2] addresses T2, Nitric oxide synthase 1 (Homo sapiens, UniProt P29475). The test can be described thus: Inhibition of Neuronal nitric oxide synthase.
Test [3] addresses T3, Nitric oxide synthase 3 (Homo sapiens, UniProt P29474).
T3 sequence (P29474 whole entry): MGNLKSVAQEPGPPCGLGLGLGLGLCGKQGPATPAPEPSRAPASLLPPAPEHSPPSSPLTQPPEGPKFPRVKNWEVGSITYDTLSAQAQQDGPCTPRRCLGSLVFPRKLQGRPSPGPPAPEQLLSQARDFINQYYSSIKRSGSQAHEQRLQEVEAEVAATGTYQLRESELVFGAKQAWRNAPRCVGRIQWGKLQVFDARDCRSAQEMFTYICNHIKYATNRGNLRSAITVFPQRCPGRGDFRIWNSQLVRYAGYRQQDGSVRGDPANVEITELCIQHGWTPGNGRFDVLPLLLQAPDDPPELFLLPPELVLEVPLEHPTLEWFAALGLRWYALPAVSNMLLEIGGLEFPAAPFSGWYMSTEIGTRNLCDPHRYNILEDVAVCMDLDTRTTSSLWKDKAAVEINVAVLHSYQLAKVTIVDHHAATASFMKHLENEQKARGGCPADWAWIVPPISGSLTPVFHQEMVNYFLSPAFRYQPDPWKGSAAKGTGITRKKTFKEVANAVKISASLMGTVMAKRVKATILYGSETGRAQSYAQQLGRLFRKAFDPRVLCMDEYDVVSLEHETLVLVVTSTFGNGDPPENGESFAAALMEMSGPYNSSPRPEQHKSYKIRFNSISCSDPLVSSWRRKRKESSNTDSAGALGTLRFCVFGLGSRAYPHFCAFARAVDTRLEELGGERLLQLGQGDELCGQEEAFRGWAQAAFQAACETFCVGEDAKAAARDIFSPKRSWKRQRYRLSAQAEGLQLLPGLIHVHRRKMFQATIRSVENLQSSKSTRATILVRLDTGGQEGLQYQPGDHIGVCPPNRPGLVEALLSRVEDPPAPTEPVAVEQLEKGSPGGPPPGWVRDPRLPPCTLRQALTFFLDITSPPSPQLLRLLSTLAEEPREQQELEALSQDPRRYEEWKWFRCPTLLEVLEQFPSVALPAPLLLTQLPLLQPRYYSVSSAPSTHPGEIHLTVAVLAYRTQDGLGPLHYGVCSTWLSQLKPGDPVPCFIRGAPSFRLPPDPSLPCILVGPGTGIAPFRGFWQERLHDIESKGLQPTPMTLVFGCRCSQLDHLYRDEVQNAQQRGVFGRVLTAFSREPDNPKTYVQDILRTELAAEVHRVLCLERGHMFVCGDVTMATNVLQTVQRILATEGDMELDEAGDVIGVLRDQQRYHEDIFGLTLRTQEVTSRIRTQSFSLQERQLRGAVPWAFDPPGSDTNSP
The experiment in a line: Inhibition of endothelial nitric oxide synthase.

Test [4] addresses T2, Nitric oxide synthase 1. The experiment in a line: Inhibitory activity against Neuronal nitric oxide synthase at 100 uM concentration was determined.
Test [5] deals with T4, Nitric oxide synthase 3 (Homo sapiens) (UniProt P29474).
T4 sequence (whole entry): T3 sequence (P29474 whole entry)
The experiment in a line: Inhibitory activity against Endothelial nitric oxide synthase at 100 uM concentration was determined.

The target in test [6] is T1, Nitric oxide synthase, inducible. The experiment in a line: Inhibitory activity against Inducible nitric oxide synthase at 100 uM concentration was determined.

T1 sequence (P35228 whole entry): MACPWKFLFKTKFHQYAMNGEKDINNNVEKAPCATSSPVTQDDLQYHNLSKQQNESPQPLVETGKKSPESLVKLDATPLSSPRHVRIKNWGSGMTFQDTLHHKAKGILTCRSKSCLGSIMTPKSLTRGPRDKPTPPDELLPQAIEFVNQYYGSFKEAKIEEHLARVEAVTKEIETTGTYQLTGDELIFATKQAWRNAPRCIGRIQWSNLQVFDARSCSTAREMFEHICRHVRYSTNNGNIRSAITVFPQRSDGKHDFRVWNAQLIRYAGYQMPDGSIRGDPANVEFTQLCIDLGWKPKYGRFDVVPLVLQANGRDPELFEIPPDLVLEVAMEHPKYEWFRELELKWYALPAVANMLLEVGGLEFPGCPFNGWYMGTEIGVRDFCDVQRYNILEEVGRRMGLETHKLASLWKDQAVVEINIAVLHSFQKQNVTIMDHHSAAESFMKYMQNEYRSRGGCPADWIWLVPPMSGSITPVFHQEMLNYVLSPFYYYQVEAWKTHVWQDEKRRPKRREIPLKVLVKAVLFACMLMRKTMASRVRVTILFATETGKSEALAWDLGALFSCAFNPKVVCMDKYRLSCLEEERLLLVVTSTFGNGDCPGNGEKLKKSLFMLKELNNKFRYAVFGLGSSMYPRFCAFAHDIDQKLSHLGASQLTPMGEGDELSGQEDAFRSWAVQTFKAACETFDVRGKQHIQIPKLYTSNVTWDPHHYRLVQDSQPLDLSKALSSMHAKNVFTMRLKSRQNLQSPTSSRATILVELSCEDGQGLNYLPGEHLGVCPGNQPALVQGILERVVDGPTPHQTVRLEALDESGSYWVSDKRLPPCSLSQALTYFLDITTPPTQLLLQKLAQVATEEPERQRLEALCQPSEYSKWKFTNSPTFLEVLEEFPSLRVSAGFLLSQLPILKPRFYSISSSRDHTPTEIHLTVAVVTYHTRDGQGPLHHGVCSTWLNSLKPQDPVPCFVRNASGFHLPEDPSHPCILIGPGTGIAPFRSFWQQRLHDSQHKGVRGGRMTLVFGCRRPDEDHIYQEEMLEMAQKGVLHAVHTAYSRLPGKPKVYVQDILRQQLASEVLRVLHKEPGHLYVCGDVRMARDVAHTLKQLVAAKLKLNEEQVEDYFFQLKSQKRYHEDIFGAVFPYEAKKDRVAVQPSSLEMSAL
T2 sequence (P29475 whole entry): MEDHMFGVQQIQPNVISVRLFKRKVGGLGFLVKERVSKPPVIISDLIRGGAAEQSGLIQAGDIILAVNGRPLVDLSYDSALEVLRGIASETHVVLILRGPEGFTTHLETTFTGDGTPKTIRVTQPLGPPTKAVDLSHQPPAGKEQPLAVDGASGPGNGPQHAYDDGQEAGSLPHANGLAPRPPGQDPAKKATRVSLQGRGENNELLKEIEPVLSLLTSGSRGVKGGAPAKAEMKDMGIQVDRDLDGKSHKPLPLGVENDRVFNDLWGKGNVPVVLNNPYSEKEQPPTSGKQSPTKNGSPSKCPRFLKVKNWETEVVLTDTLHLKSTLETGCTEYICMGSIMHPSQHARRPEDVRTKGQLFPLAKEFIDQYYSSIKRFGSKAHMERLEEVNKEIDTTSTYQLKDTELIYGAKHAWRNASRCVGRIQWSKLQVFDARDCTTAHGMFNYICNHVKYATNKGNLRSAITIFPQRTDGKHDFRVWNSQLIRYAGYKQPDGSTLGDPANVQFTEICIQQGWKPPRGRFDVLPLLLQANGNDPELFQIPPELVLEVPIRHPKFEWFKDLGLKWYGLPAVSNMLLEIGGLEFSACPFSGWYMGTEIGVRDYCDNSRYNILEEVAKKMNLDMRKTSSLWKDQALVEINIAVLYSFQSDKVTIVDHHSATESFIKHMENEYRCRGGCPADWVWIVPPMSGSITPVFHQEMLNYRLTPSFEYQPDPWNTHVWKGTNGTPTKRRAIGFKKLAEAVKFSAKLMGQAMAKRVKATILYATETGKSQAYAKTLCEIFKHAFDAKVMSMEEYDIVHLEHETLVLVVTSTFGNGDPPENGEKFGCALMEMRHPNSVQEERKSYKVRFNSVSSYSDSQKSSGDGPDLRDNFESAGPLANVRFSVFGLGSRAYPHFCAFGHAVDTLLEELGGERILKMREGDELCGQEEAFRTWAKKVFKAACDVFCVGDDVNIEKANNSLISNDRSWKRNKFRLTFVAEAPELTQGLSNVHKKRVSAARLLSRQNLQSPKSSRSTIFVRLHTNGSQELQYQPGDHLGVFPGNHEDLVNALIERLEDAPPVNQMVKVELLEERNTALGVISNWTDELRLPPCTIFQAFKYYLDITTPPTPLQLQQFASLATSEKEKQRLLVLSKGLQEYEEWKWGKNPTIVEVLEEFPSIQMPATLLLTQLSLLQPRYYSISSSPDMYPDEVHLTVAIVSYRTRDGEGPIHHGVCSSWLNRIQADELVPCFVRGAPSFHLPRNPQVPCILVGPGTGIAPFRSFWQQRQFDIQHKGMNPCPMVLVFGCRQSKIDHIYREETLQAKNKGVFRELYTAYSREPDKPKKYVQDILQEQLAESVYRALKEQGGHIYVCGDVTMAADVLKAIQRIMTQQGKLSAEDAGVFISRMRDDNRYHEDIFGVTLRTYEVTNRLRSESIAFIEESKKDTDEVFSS

Regarding `NC1=NC(CC[N+](=O)[O-])CCCC1` (configuration not stated), the concentration for half-maximal inhibition (IC50) stood at 0.152 µM in test [1], 0.339 µM in test [2] and 2.77 µM in test [3].

With `N/C1=N/CCCSCC1`, the IC50 in test [1] is 13.1 µM; in test [2], 21 µM; in test [3] it was 186 µM.

Consider `N=C1CCOCC(CC[N+](=O)[O-])N1` (configuration not stated), for which the IC50 amounted to 0.979 µM in test [1], 6.24 µM in test [2] and 49.3 µM in test [3].

Take `CCOC(=O)[C@H]1CSCCC(N)=N1`: the inhibition stood at 82.6% in test [4], 13.9% in test [5] and 70.9% in test [6].

With `NCCC1COCCC(N)=N1` (configuration not stated), the IC50 in test [1] stood at 6.66 µM; in test [2] it was 8.39 µM; in test [3], 248 µM.

On to `C/C=C/CC1COCCC(N)=N1` (configuration not stated), for which the half-maximal inhibitory concentration (IC50) in test [1] came out at 9.26 µM; in test [2], 108 µM; in test [3], 709 µM.

In the case of `CN1CCN=C(N)CC1`, the values for the inhibition in test [5] and in test [6] were 6.42% and 32.1%, respectively.

On to `NC1=NCCSCC1`, for which the IC50 in test [1] stood at 2.7 µM; in test [2], 6.8 µM; in test [3], 43.6 µM.

On to `CCOC(=O)[C@@H]1CSCCC(N)=N1`, for which the figures for the inhibition in test [4], in test [5] and in test [6] were 84.8%, 8.66% and 70.9%, respectively.

As to `NCCC1CCCCC(N)=N1` (configuration not stated), the IC50 in test [1] was determined as 0.701 µM; in test [2], 0.932 µM; in test [3], 39.1 µM.

`CCCCC1CCCCC(N)=N1` (configuration not stated) had an IC50 in test [1] of 0.517 µM.

Regarding `NC1=NCCOCC1`, the IC50 in test [1] was 14 µM; in test [2], 17.7 µM; in test [3] it was 72.7 µM.

As to `CCCCC1COCCC(N)=N1` (configuration not stated), the IC50 was 2.43 µM in test [1], 25.9 µM in test [2] and 1360 µM in test [3].

As for `C/C=C/CC1CCCCC(N)=N1` (configuration not stated), the half-maximal inhibitory concentration (IC50) in test [1] amounted to 0.89 µM; in test [2] it was 3.39 µM; in test [3] it was 206 µM.

For `CCOC(=O)[C@@H]1CCSCC/C(N)=N\1`, the inhibition stood at 13.9% in test [4], 2.4% in test [5] and 55.7% in test [6].

Source of the values: ChEMBL document CHEMBL1133982, “Selective heterocyclic amidine inhibitors of human inducible nitric oxide synthase” (Bioorg Med Chem Lett, 2001).
